# Experimental data from article PMC10045593, “Ubiquitin-Specific Proteases as Potential Therapeutic Targets in Bladder Cancer—In Vitro Evaluation of Degrasyn and PR-619 Activity Using Human and Canine Models” (Biomedicines, 2023).
# Several values for one entry are separate records, joined by “and”; a condition that tells them apart may be missing. Equal entries are not always repeated.
# Columns and labels:
# [1] = test system: RDSVS-TCC1 cell line; assay: Ki-67 flow cytometry proliferation assay; type: cell-based, canine; details: RDSVS-TCC1, 24 h, p < 0.05
# Experimental: (§1) For the cell proliferation assay, cells were plated in 100 mm cell culture plates. When the cultures reached 60% confluence, the media were discarded from the wells and replaced with culture media only or media with added compounds (Degrasyn, PR-619) with increasing concentrations for 24 h. The growth medium was then removed from the wells, the cells were rinsed twice with PBS, and 0.25% trypsin-EDTA was added to detach the cells. After 5 min of incubation at 37 °C and 5% CO2, the fresh culture medium was added to inactivate the trypsin, and cells were collected in flow cytometry tubes. Cells were then labeled using the Ki-67 Proliferation Kit BD Pharmingen(BD Biosciences) according to the manufacturer’s instructions and analyzed using a flow cytometer (Cytoflex, Beckman Coulter). Unstained control cells were used for gating to determine the percentage of the proliferation of the Ki-67-positive cells in the samples. Percentages of proliferating (Ki-67 positive) cells were used to calculate the means ± SD for each cell line. The presented results were obtained from three independent experiments.
# [2] = test system: K9TCC-PU-NK cell line; assay: Ki-67 flow cytometry proliferation assay; type: cell-based, canine; details: 24 h, p < 0.05
# Experimental: as §1
# [3] = test system: T24 cell line; assay: Caspase 3/7 activation flow cytometry assay; type: cell-based, human; details: T24, 24 h
# Experimental: (§2) Subsequently, to assess caspases 3/7 activation, the cells were incubated with medium alone or with increasing concentrations of compounds (Degrasyn, PR-619) in conditions similar to the previous test. Following cell collection, the cells were twice PBS-washed and stained in accordance with the manufacturer’s instructions. For active caspase 3/7 detection, CellEventCaspase-3/7 Green Detection Reagent Solution was added to the samples. The cells were then suspended 1 more time in the wash buffer after being washed twice. For flow cytometric analysis, a flow cytometers (FACS Calibur, Becton Dickinson, Biosciences, San Jose, CA, USA; CytoFlex, Beckman Coulter, CA, USA) were used, and CellQuest 3.lf (Becton Dickinson, San Jose, CA, USA) and CytExpert 2.4 (Beckman Coulter, CA, USA) software were used for data analysis. The presented results were obtained from three independent experiments.
# [4] = test system: SV-HUC-1 cell line; assay: Caspase 3/7 activation flow cytometry assay; type: cell-based, human; details: SV-HUC-1, 24 h
# Experimental: as §2
# [5] = test system: Bcl-2 in all BC cell lines (T24, K9TCC-PU-NK, RDSVS-TCC-1); assay: Western blot for Bcl-2 expression; type: cell-based, human and canine; details: 24 h
# Experimental: Western blot was performed to assess the expression of USP5, USP9X, and USP14 in analyzed cell lines. After 24 h of incubation with increasing concentrations of Degrasyn and PR-619, the expression of proteins involved in apoptosis (Bcl-2 and Bcl-xl) and a marker of DNA damage (γH2A.X) was also evaluated. Briefly, cells were rinsed with cold phosphate-buffered saline (PBS), suspended in lysis buffer (50 mM Tris-HCl pH 7.5, 100 mM NaCl, 1% NP-40, protease inhibitors set), and incubated for 20 min on ice. Subsequently, after centrifuging at 10,000 rpm at 4 °C for 12 min, sodium dodecyl sulfate (SDS) sample buffer was added to […]. After boiling for 5 min at 95 °C, the samples were subjected to SDS-polyacrylamide gel electrophoresis on 8–15% gel. For USP5, USP9X, USP14, γH2A.X, Bcl-2, and Bcl-xl expression analysis, transfers onto nitrocellulose membranes were performed using a Semidry Transfer Cell or wet transfer method (Bio-Rad, Hercules, CA, USA). After transfer, the membranes were blocked with 1% casein in TBS (or 3% BSA for γH2Ax) at room temperature for 1 h. […]
# [6] = test system: T24 cell line; assay: Ki-67 flow cytometry proliferation assay; type: cell-based, human; details: T24, 24 h, p < 0.05
# Experimental: as §1
# [7] = test system: SV-HUC-1 cell line; assay: Ki-67 flow cytometry proliferation assay; type: cell-based, human; details: SV-HUC-1, 24 h, p < 0.05
# Experimental: as §1
# [8] = test system: T24 cell line; assay: Annexin V-FITC/PI apoptosis flow cytometry; type: cell-based, human; details: T24, 24 h; for pro-apoptotic effect (number of apoptotic cells vs control): increasing concentrations up to approximately IC50
# Experimental: (§3) To assess the level of apoptosis induced by Degrasyn and PR-619, cells were seeded at a density of 1 × 10^5/mL in 96-well plates (TPP, Trasadingen, Switzerland) and incubated for 24 h with increasing concentrations of compounds. Cells were then collected, suspended in a binding buffer, and stained with Annexin V-FITC for 10 min at room temperature. Subsequently, PI was added, and flow cytometric analysis was immediately performed using a flow cytometers (FACS Calibur, Becton Dickinson, Biosciences, San Jose, CA, USA; CytoFlex, Beckman Coulter, CA, USA). CellQuest 3.lf. (Becton Dickinson, San Jose, CA, USA) and CytExpert 2.4 (Beckman Coulter, CA, USA) software were used for data analysis.
# [9] = test system: SV-HUC-1 cell line; assay: Annexin V-FITC/PI apoptosis flow cytometry; type: cell-based, human; details: SV-HUC-1, 24 h; for pro-apoptotic effect (number of apoptotic cells vs control): increasing concentrations up to approximately IC50
# Experimental: as §3
# [10] = test system: RDSVS-TCC1 cell line; assay: Annexin V-FITC/PI apoptosis flow cytometry; type: cell-based, canine; details: RDSVS-TCC1, 24 h; for pro-apoptotic effect (number of apoptotic cells vs control): increasing concentrations up to approximately IC50
# Experimental: as §3
# [11] = test system: K9TCC-PU-NK cell line; assay: Annexin V-FITC/PI apoptosis flow cytometry; type: cell-based, canine; details: 24 h
# Experimental: as §3
# [12] = only highest concentration 5 µM
# [13] = 2.5 μM (highest concentration of Degrasyn)
# [14] = only highest concentration 10 µM
# [15] = 5 μM (highest concentration of PR-619)
smiles,measurement,setting,value
CCC[C@H](NC(=O)/C(C#N)=C/c1cccc(Br)n1)c1ccccc1 [Degrasyn],percentage of Ki-67 positive cells (as compared to control),[1]; [12],significantly decreased
same,percentage of Ki-67 positive cells (as compared to control),[2]; [12],significantly decreased
same,percentage of cells with active caspase 3/7,[3]; 0.6 μM,12.5%
same,percentage of cells with active caspase 3/7,[3]; 1.25 μM,16.1%
same,percentage of cells with active caspase 3/7,[3]; [13],36.6 ± 0.7% and 36.6%
same,percentage of cells with active caspase 3/7,[4]; 0.6 μM,5.8%
same,percentage of cells with active caspase 3/7,[4]; 1.25 μM,7.6%
same,percentage of cells with active caspase 3/7,[4]; [13],22.4 ± 5.4% and 22.4%
same,expression of Bcl-2 protein,[5]; 5 μM,slightly decreased
same,percentage of Ki-67 positive cells (as compared to the control),[6]; 2.5–5 µM,significantly decreased
same,percentage of Ki-67 positive cells (as compared to control),[7]; [12],significantly decreased
same,percentage of early and late apoptotic cells,[8]; 2.5 μM,32.2 ± 9.2%
same,pro-apoptotic effect (number of apoptotic cells vs control),[8],significant increase
same,percentage of early and late apoptotic cells,[9]; 2.5 μM,24.1 ± 2.8%
same,pro-apoptotic effect (number of apoptotic cells vs control),[9],significant increase
same,percentage of early and late apoptotic cells,[10]; 2.5 μM,42.4 ± 2.3%
same,pro-apoptotic effect (number of apoptotic cells vs control),[10],significant increase
same,percentage of early and late apoptotic cells,[11]; 2.5 μM,11.8 ± 3.4%
N#CSc1cc(SC#N)c(N)nc1N [PR-619],percentage of Ki-67 positive cells (as compared to control),[1]; [14],significantly decreased
same,percentage of Ki-67 positive cells (as compared to control),[2]; [14],significantly decreased
same,percentage of cells with active caspase 3/7,[3]; 1.25 μM,10.2%
same,percentage of cells with active caspase 3/7,[3]; [13],13.4%
same,percentage of cells with active caspase 3/7,[3]; [15],16.1 ± 4.9% and 16.1%
same,percentage of cells with active caspase 3/7,[4]; 1.25 μM,8.9%
same,percentage of cells with active caspase 3/7,[4]; [13],10.6%
same,percentage of cells with active caspase 3/7,[4]; [15],19.6 ± 1.8% and 19.6%
same,expression of Bcl-2 protein,[5]; 10 μM,slightly decreased
same,percentage of Ki-67 positive cells (as compared to the control),[6]; 5–10 µM,significantly decreased
same,percentage of Ki-67 positive cells (as compared to control),[7]; [14],significantly decreased
same,percentage of early and late apoptotic cells,[8]; 5 μM,9.8 ± 1.5%
same,pro-apoptotic effect (number of apoptotic cells vs control),[8],did not show a significant pro-apoptotic effect
same,percentage of early and late apoptotic cells,[9]; 5 μM,14.8 ± 5.8%
same,pro-apoptotic effect (number of apoptotic cells vs control),[9],did not show a significant pro-apoptotic effect
same,percentage of early and late apoptotic cells,[10]; 5 μM,17.2 ± 6.5%
same,pro-apoptotic effect (number of apoptotic cells vs control),[10],did not show a significant pro-apoptotic effect
same,percentage of early and late apoptotic cells,[11]; 5 μM,8.4 ± 0.8%
same,pro-apoptotic effect (number of apoptotic cells vs control),[11]; increasing concentrations up to approximately IC50,did not show a significant pro-apoptotic effect
